In PubChem BioAssay (NCI):
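Method: 48-hour compound exposure of cells in 96-well plates, five concentrations, linear interpolation of endpoints. At the TGI there is no net growth.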

What was measured:
Assay in all cases: DTP human tumour cell line panel, 48 h
MALME-3M melanoma = tested on: MALME-3M melanoma
NCI-H23 lung = tested on: NCI-H23 lung
OVCAR-4 ovarian = tested on: OVCAR-4 ovarian
NCI-H460 lung = tested on: NCI-H460 lung
A498 renal = tested on: A498 renal
CAKI-1 renal = tested on: CAKI-1 renal
EKVX NSCLC = tested on: EKVX NSCLC
SK-OV-3 ovarian = tested on: SK-OV-3 ovarian
HOP-62 NSCLC = tested on: HOP-62 NSCLC
TK-10 renal = tested on: TK-10 renal
SNB-19 CNS = tested on: SNB-19 CNS
HCT-15 colon = tested on: HCT-15 colon
SF-268 CNS = tested on: SF-268 CNS
MCF7 breast = tested on: MCF7 breast
SF-539 CNS = tested on: SF-539 CNS
NCI-H522 lung = tested on: NCI-H522 lung
MDA-N = tested on: MDA-N
HOP-92 NSCLC = tested on: HOP-92 NSCLC
HS 578T breast = tested on: HS 578T breast

Measured: TGI

COC1O[C@H]2[C@H]3[C@@H]1[C@@H](OS(=O)(=O)c1ccc(C)cc1)C(=O)N3C[C@H]2O (stereo partly drawn)
not listed: NCI-H522 lung | MDA-N | HOP-92 NSCLC | HS 578T breast
> 100 µM: all other assays above

CCOC(=O)C(NCc1cccc(C(F)(F)F)c1)(NC(=O)CC)C(F)(F)F (stereo not drawn)
not listed: NCI-H460 lung | A498 renal
> 100 µM: all other assays above

Cn1/c(=N\N=C(\CNCCO)[C@@H](O)[C@@H]2OC(c3ccccc3)OC[C@H]2O)sc2ccccc21 (stereo partly drawn)
34.7 µM: HOP-62 NSCLC
37.7 µM: SK-OV-3 ovarian
26.3 µM: SNB-19 CNS
54.6 µM: HCT-15 colon
49 µM: NCI-H460 lung
38.6 µM: CAKI-1 renal
32.3 µM: MALME-3M melanoma
32.7 µM: NCI-H522 lung | SF-539 CNS
33.2 µM: EKVX NSCLC
32.5 µM: MDA-N
37.5 µM: NCI-H23 lung
32 µM: HOP-92 NSCLC
30.5 µM: SF-268 CNS
36.3 µM: TK-10 renal
34.2 µM: MCF7 breast
31.1 µM: HS 578T breast
52.8 µM: OVCAR-4 ovarian

COC(=O)/C=C(/OC)[C@H](C)[C@H](/C=C/c1csc(-c2csc(C(C)C)n2)n1)OC
not listed: MDA-N
> 100 µM: all other assays above

Cc1ccc(/C=C2\Cc3cccc(C)c3C2=O)c(C(=O)O)c1
53.6 µM: HOP-92 NSCLC
52.9 µM: OVCAR-4 ovarian
48.8 µM: CAKI-1 renal
60.8 µM: NCI-H522 lung
not listed: SK-OV-3 ovarian | MCF7 breast
> 100 µM: all other assays above

CC(=O)OCC(OC(C)=O)C(OC(C)=O)C(OC(C)=O)C(C=NN(C(C)=O)S(=O)(=O)c1ccc(/C=C2\NC(=O)NC2=O)cc1)OC(C)=O (stereo not drawn)
not listed: SF-539 CNS | HOP-92 NSCLC
> 100 µM: all other assays above

COC1CC(NC(=O)C(F)(F)F)C(OC(C)=O)C(C)O1 (stereo not drawn)
not listed: A498 renal
> 100 µM: all other assays above

Clc1cc(Br)c2c3c(c(Br)cc(Cl)c13)C(Br)=C2Br
37.6 µM: HCT-15 colon
70.4 µM: SF-268 CNS
38.8 µM: NCI-H522 lung
46.6 µM: TK-10 renal
35.7 µM: SF-539 CNS
not listed: NCI-H23 lung | CAKI-1 renal | HOP-92 NSCLC
> 100 µM: all other assays above

COc1cc(Nc2nc3ccc(C(F)(F)F)cc3nc2C(=O)O)cc(OC)c1OC
88.8 µM: MALME-3M melanoma
52.6 µM: OVCAR-4 ovarian
97.2 µM: EKVX NSCLC
51.8 µM: NCI-H522 lung
46.8 µM: MDA-N | SF-268 CNS
45.5 µM: NCI-H23 lung
61.7 µM: CAKI-1 renal
86.5 µM: SF-539 CNS
> 100 µM: SK-OV-3 ovarian | SNB-19 CNS | MCF7 breast
35.3 µM: HCT-15 colon
48.2 µM: HOP-62 NSCLC
54.8 µM: HS 578T breast
62.2 µM: TK-10 renal
48.4 µM: NCI-H460 lung

C[Si](C)(OCCS(=O)(=O)O)OC(=C1S(=O)(=O)OCCOS1(=O)=O)c1cccc2ccccc12
not listed: SK-OV-3 ovarian | NCI-H522 lung | HS 578T breast
> 100 µM: all other assays above

CNc1nnc(CNc2ccc(-c3nnc(NC)n3N)cc2)n1N
not listed: MALME-3M melanoma | NCI-H522 lung | HS 578T breast
> 100 µM: all other assays above

COc1ccc(-n2c(N)c(C#N)c(C#N)c2-c2ccccc2)cc1
76.5 µM: HOP-92 NSCLC
93.2 µM: OVCAR-4 ovarian
not listed: NCI-H460 lung | MDA-N
> 100 µM: all other assays above

CC(=O)O[C@H]1C(=O)[C@@]2(C)[C@H]([C@H](OC(=O)c3ccccc3)[C@]3(O)C[C@H](OC(=O)[C@H](O)[C@@H](NC(=O)C(C)(C)C)c4ccccc4)C(C)=C1C3(C)C)[C@]1(OC(C)=O)CO[C@@H]1C[C@@H]2O
0.105 µM: NCI-H522 lung
0.368 µM: SK-OV-3 ovarian
0.413 µM: SF-539 CNS
0.389 µM: HS 578T breast
not listed: A498 renal | MDA-N
> 10 µM: all other assays above

O=S(=O)(c1ccccc1)C1(CCC2OCCO2)C=CC2(CC1)OCCO2 (stereo not drawn)
not listed: CAKI-1 renal | SF-539 CNS | NCI-H522 lung | HS 578T breast
> 100 µM: all other assays above

O=c1c2cc([N+](=O)[O-])ccc2n2n1CCCC2
not listed: MCF7 breast
> 100 µM: all other assays above

N#Cc1nc(C(CO)N(Cc2ccccc2)C(=O)O)oc1N (stereo not drawn)
not listed: MALME-3M melanoma | SNB-19 CNS | MDA-N | HS 578T breast
> 100 µM: all other assays above

[O-][n+]1onc2c1/C(=N/O)CCC2
not listed: HOP-92 NSCLC
> 100 µM: all other assays above

CN(C)/C=N/NC(=O)/C(C#N)=C/N(C)C
not listed: HOP-92 NSCLC
> 100 µM: all other assays above

COc1cc(N(Cc2ccc3nc(OC)c(OC)nc3c2)Cc2ccc3nc(OC)c(OC)nc3c2)cc(OC)c1OC
27.2 µM: HS 578T breast
47.7 µM: SNB-19 CNS
not listed: NCI-H460 lung | A498 renal | HOP-92 NSCLC
> 50 µM: all other assays above

CC(=O)O[C@H]1CCC2[C@@H]3CCC4Cc5nc6c(nc5C[C@]4(C)C3CC[C@@]21C)CC1CC[C@@H]2C(CC[C@@]3(C)C2CC[C@@H]3C(C)CCCC(C)C)[C@@]1(C)C6 (stereo partly drawn)
not listed: A498 renal | CAKI-1 renal | NCI-H522 lung
> 100 µM: all other assays above

O=C1C(=Cc2cccc(O)c2)N=C(c2ccccc2)N1n1c(-c2ccccc2)nc2ccccc2c1=O
59.8 µM: NCI-H460 lung
72.7 µM: SNB-19 CNS
> 100 µM: OVCAR-4 ovarian | EKVX NSCLC | SK-OV-3 ovarian | TK-10 renal | HCT-15 colon
66 µM: HOP-92 NSCLC
87.5 µM: SF-268 CNS
92.3 µM: MALME-3M melanoma
72.4 µM: A498 renal
88.5 µM: NCI-H23 lung
76.8 µM: HS 578T breast
85.8 µM: CAKI-1 renal
51.3 µM: SF-539 CNS
56 µM: NCI-H522 lung

Cc1ccc(-c2nc(-c3cnccn3)n(C3OC(CO)C(O)C(O)C3O)n2)cc1 (stereo not drawn)
not listed: MALME-3M melanoma | A498 renal | CAKI-1 renal | SK-OV-3 ovarian | HS 578T breast
> 100 µM: all other assays above

COC(=O)CSC(=S)Nc1nnc(NC(=S)SCOC(C)=O)n1C(=S)SCC(=O)OC
37.5 µM: HOP-62 NSCLC
not listed: MALME-3M melanoma | SK-OV-3 ovarian | TK-10 renal | SF-539 CNS | NCI-H522 lung | HOP-92 NSCLC
> 100 µM: all other assays above

O=c1[nH]c(=O)n(C2CC(O)C(CO)O2)cc1OCC1CCCCC1 (stereo not drawn)
not listed: A498 renal | SF-539 CNS | HOP-92 NSCLC
> 100 µM: all other assays above

COC(=O)c1c2c(cc3c1CC1(Cc4cc5c(cc4C1=O)CCC5)C3)CCC2 (stereo not drawn)
93.8 µM: SK-OV-3 ovarian
not listed: HOP-92 NSCLC
> 100 µM: all other assays above

CC(C)(C)OC(=O)C1CC[C@@H](CC(=O)Oc2ccc([N+](=O)[O-])cc2)N1 (stereo partly drawn)
not listed: HOP-62 NSCLC | SF-268 CNS | HS 578T breast
> 100 µM: all other assays above
